Assay [1] addresses T1, angiotensin II type 1 receptor (Oryctolagus cuniculus, UniProt P34976).
T1 construct: By using a specimen of isolated rabbit blood vessels; from tissue; host or cells: rabbit (New Zealand White) thoracic aorta ring
T1 sequence (P34976 1-359): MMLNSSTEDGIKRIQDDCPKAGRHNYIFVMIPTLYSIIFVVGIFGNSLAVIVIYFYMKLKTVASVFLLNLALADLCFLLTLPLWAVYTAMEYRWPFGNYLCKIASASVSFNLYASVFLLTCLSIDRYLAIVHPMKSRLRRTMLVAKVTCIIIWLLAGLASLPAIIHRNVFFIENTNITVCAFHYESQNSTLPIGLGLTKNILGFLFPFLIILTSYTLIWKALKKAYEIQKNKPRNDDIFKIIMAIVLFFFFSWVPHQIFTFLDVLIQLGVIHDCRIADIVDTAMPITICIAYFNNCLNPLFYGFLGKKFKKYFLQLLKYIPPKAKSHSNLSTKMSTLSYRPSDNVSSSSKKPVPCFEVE
Nature of the assay: Angiotensin II antagonistic activity in isolated rabbit blood vessels (thoracic aorta ring contraction). The note with it: angiotensin II (10 nM)-induced contraction. As for the experimental part:
By using a specimen of isolated rabbit blood vessels, antagonistic activity of the compounds of the invention against angiotensin II type 1 receptor was estimated from a dose-response curve of angiotensin II-induced blood vessel contraction.
During the measurement, the inside temperature of the magnus bath was maintained at 37° C. and the bath was continuously ventilated with a sufficient amount of mixed gas (95% O2 and 5% CO2). The angiotensin II-induced contraction was converted into a relative value (%) that is based on the angiotensin II (10 nM)-induced contraction in the absence of the compounds of each example. From the concentration-response curve obtained therefrom, 50% inhibition concentration (IC50 value) was calculated by using SAS Preclinical Package Ver5.0 (trade name, manufactured by SAS institute Japan Co., Tokyo, Japan), which is a statistical analysis program.

A further assay deals with T2, human PPARγ2 (Homo sapiens, UniProt P37231).
T2 construct: the amino acids 182 to 505 of human PPARγ2; expressed in transfected cells; host or cells: COS7 cells (African green monkey kidney)
T2 sequence (P37231 182-505): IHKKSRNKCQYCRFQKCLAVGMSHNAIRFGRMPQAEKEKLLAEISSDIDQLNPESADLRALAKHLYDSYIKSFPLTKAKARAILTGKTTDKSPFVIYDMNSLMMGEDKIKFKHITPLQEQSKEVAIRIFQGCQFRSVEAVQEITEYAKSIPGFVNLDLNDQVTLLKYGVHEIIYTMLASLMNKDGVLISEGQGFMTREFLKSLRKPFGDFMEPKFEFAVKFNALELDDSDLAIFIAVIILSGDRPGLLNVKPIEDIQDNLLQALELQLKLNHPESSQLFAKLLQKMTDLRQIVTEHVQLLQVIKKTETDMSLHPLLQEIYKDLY
The experiment in a line: PPARγ activation activity, Gal4-PPARγ2 LBD luciferase transfection assay using COS7 cells. The note with it: for EC50: COS7 cells, 16 hours, luciferase activity relative to rosiglitazone = 100%, read-out: EC50; for Emax: COS-7, 16 h, maximum activity strength relative to the maximum activity of rosiglitazone, read-out: % MAX vs Rosiglitazone. It counts as cell-based. As for the experimental part: The agonistic activity of the compounds of the invention on PPARγ was measured based on the transfection assay using COS7 cells (DS Pharma Biomedical Co., Ltd., Osaka, Japan), which are the cell line derived from the kidney of the African green monkey. COS7 cells were cultured under 5% CO2 concentration, and DMEM medium containing 10% fetal bovine serum, glutamic acid, and antibiotics was used as a medium.
As an expression vector, a chimera in which DNA binding domain of Gal4, which is a yeast transcription factor, and ligand binding domain of human PPARγ2 are fused, i.e., a fused product between the amino acids 1 to 147 of Gal4 transcription factor and the amino acids 182 to 505 of human PPARγ2, was used. Furthermore, as a reporter vector, a firefly luciferase containing five copies of Gal4 recognition sequence in the promoter region was used. Plasmid transfection to the cells was performed according to a method which uses jetPEI (trade name, manufactured by Funakoshi Co., Ltd., Tokyo, Japan). Furthermore, β-galactosidase expression vector was employed as an internal standard.
After the transfection of the cells, the medium was replaced with a DMEM medium (containing 1% serum) added with the compound, and the cells were further cultured for 16 hours. After that, the luciferase activity and β-galactosidase activity in the cell lysis solution were measured.
For the present test, dimethyl sulfoxide (DMSO) was used for dissolution and dilution of the test compounds, and during the cell treatment, the DMSO concentration in DMEM medium (containing 1% serum) was adjusted to 0.1%. As a positive compound, rosiglitazone (trade name, manufactured by ALEXIS Corporation, Switzerland) was used. The luciferase activity (%) of the test compounds (1 to 30 μmol/L) was calculated when the luciferase activity of rosiglitazone (3 to 10 μmol/L) is 100% and the luciferase activity in the absence of the test compound is 0%. The 50% effective concentration of the test compound (EC50, 50% effect concentration) was calculated by using SAS Preclinical Package Ver5.0 (trade name, manufactured by SAS institute Japan Co., Tokyo, Japan), which is a statistical analysis program.

21 compounds from patent US20120046308A1, “NOVEL ALPHA-PHENOXYBENZENEACETIC ACID DERIVATIVE AND PHARMACEUTICAL PREPARATION COMPRISING SAME” (KOWA COMPANY, LTD., priority 2009, published 2012) can be followed below.

Regarding `CCCCc1nc(C)n(-c2ncc(O)cn2)c(=O)c1Cc1cc(CCC)c(OC(C(=O)O)c2ccccc2)c(CCC)c1` (stereo not drawn) [Example 27, 2-[4-[{4-butyl-1-(5-hydroxypyrimidin-2-yl)-2-methyl-6-oxo-1,6-dihydropyrimidin-5-yl}methyl]-2,6-dipropylphenoxy]-2-phe nylacetic acid], the IC50 in assay [1] was found to be 468 nM.

Take `CCCCc1nc(C)n(-c2ncc(OCC[S+](C)[O-])cn2)c(=O)c1Cc1cc(CCC)c(OC(C(=O)O)c2ccccc2)c(CCC)c1` (stereo not drawn) [Example 25]: the IC50 in assay [1] was determined as 76 nM. The same measure, in the same setting: in the case of `CCCCc1nc(C)n(-c2ncc(OCCS(C)(=O)=O)cn2)c(=O)c1Cc1cc(CCC)c(OC(C(=O)O)c2ccccc2)c(CCC)c1` (stereo not drawn) [Example 26, 2-[4-[[4-butyl-2-methyl-1-[5-{2-(methylsulfonyl)ethoxy}pyrimidin-2-yl]-6-oxo-1,6-dihydropyrimidin-5-yl]methyl]-2,6-dipropylphenoxy]-2-phenylacetic acid] it was 353 nM.

On to `CCCCc1nc(C)nc(OCc2ccccc2)c1Cc1cc(CCC)c(OC(C(=O)O)c2ccccc2)c(CCC)c1` (stereo not drawn) [Example 29], for which the EC50 on human PPARγ2 turned out to be 2490 nM. On the same count and under the same terms, the value for `CCCCc1nc(C)nc(OCCOC)c1Cc1cc(CCC)c(OC(C(=O)O)c2ccccc2)c(CCC)c1` (stereo not drawn) [Example 32, 2-[4-[{4-butyl-6-(2-methoxyethoxy)-2-methylpyrimidin-5-yl}methyl]-2,6-dipropylphenoxy]-2-phenylacetic acid] was 2400 nM.

For the compound `CCCCc1nc(C)n(-c2ccccn2)c(=O)c1Cc1cc(CCC)c(OC(C(=O)O)c2cccc(Cl)c2)c(CCC)c1` (stereo not drawn) [Example 8, 2-[4-[{4-butyl-2-methyl-6-oxo-1-(pyridin-2-yl)-1,6-dihydropyrimidin-5-yl}methyl]-2,6-dipropylphenoxy]-2-(3-chlorophenyl)acetic acid], on human PPARγ2, the EC50 is 2020 nM and the Emax worked out at 41.4%. For `CCCCc1nc(CCc2ccc(CC)cn2)[nH]c(=O)c1Cc1cc(CCC)c(OC(C(=O)O)c2ccccc2)c(CCC)c1` (stereo not drawn) [Example 31], the concentration giving a half-maximal response (EC50) on human PPARγ2 was determined as 1210 nM. Take `CCCCc1nc(C)n(-c2ncc(OC)cn2)c(=O)c1Cc1cc(CCC)c(OC(C(=O)O)c2ccccc2)c(CCC)c1` (single isomer, unassigned; (+)) [Example 17, (+)-2-[4-[{4-butyl-1-(5-methoxypyrimidin-2-yl)-2-methyl-6-oxo-1,6-dihydropyrimidin-5-yl}methyl]-2,6-dipropylphenoxy]-2-phenylacetic acid]: the EC50 on human PPARγ2 amounted to 3710 nM. Consider `CCCCc1nc(C)n(-c2ccccn2)c(=O)c1Cc1cc(CCC)c(OC(c2nnn[nH]2)c2ccccc2Cl)c(CCC)c1` (stereo not drawn) [Example 11, 6-butyl-5-[4-{(2-chlorophenyl)(1H-tetrazol-5-yl)methoxy}-3,5-dipropylbenzyl]-2-methyl-3-(pyridin-2-yl)pyrimidin-4(3H)-one], for which the concentration for a half-maximal effect (EC50) at human PPARγ2 came out at 2630 nM. As to `CCCCc1nc(C)n(-c2ccccn2)c(=O)c1Cc1cc(CCC)c(OC(C(=O)O)c2ccccc2OC)c(CCC)c1` (stereo not drawn) [Example 10, 2-[4-[{4-butyl-2-methyl-6-oxo-1-(pyridin-2-yl)-1,6-dihydropyrimidin-5-yl}methyl]-2,6-dipropylphenoxy]-2-(2-methoxyphenyl)acetic acid], at human PPARγ2, the half-maximal effective concentration (EC50) was determined as 3290 nM and the Emax turned out to be 25.6%. With `CCCc1cc(Cc2c(CCC)nc(C)n(-c3ccccn3)c2=O)cc(CCC)c1OC(C(=O)O)c1ccccc1` (stereo not drawn) [Example 2, 2-[4-[{2-methyl-6-oxo-4-propyl-1-(pyridin-2-yl)-1,6-dihydropyrimidin-5-yl}methyl]-2,6-dipropylphenoxy]-2-phenylacetic acid], at human PPARγ2, the EC50 came to 3910 nM and the Emax is 25.2%.

`CCCCc1nc(C)n(-c2ccccn2)c(=O)c1Cc1cc(CCC)c(OC(C(=O)O)c2ccccc2Cl)c(CCC)c1` (stereo not drawn) [Example 7]: at human PPARγ2, the EC50 worked out at 3460 nM and the Emax turned out to be 23.3%. For `CCCCc1nc(C)n(-c2ccccn2)c(=O)c1Cc1cc(CCC)c(OC(c2ccccc2)c2noc(=O)[nH]2)c(CCC)c1` (stereo not drawn) [Example 5, 3-[[4-[{4-butyl-2-methyl-6-oxo-1-(pyridin-2-yl)-1,6-dihydropyrimidin-5-yl}methyl]-2,6-dipropylphenoxy](phenyl)methyl]-1,2,4-oxadiazol-5(4H)-one], in that order: 1190 nM and 35.1%. Regarding `CCCCc1nc(C)n(-c2ncc(OC)cn2)c(=O)c1Cc1cc(CCC)c(OC(C(=O)O)c2ccc(Cl)cc2)c(CCC)c1` (stereo not drawn) [Example 18, 2-[4-[{4-butyl-1-(5-methoxypyrimidin-2-yl)-2-methyl-6-oxo-1,6-dihydropyrimidin-5-yl}methyl]-2,6-dipropylphenoxy]-2-(4-chlorophenyl)acetic acid], on human PPARγ2, the half-maximal effective concentration (EC50) was found to be 1400 nM and the Emax is 49.1%. `CCCCc1nc(C)n(-c2ccccn2)c(=O)c1Cc1cc(CCC)c(OC(C(=O)NS(C)(=O)=O)c2ccccc2)c(CCC)c1` (stereo not drawn) [Example 6, 2-[4-[{4-butyl-2-methyl-6-oxo-1-(pyridin-2-yl)-1,6-dihydropyrimidin-5-yl}methyl]-2,6-dipropylphenoxy]-N-(methylsulfonyl)-2-phenyl acetoamide]: the concentration giving a half-maximal response (EC50) at human PPARγ2 is 3190 nM. Still for that read-out and setting: the value for `CCCc1cc(Cc2c(CC)nc(C)n(-c3ccccn3)c2=O)cc(CCC)c1OC(C(=O)O)c1ccccc1` (stereo not drawn) [Example 3] was 3520 nM. Turning to `CCCCc1nc(C)n(-c2ncc(OCc3ccccc3)cn2)c(=O)c1Cc1cc(CCC)c(OC(C(=O)O)c2ccccc2)c(CCC)c1` (stereo not drawn) [Example 19, 2-[4-[[1-[5-(benzyloxy)pyrimidin-2-yl]-4-butyl-2-methyl-6-oxo-1,6-dihydropyrimidin-5-yl]methyl]-2,6-dipropylphenoxy]-2-phenylacetic acid], at human PPARγ2, the half-maximal effective concentration (EC50) was 650 nM and the Emax was determined as 49.9%. Turning to `CCCCc1nc(C)n(-c2ccccn2)c(=O)c1Cc1cc(CCC)c(OC(c2ccccc2)c2nnn[nH]2)c(CCC)c1` (stereo not drawn) [Example 4, 6-butyl-2-methyl-5-[4-{phenyl(1H-tetrazol-5-yl)methoxy}-3,5-dipropylbenzyl]-3-(pyridin-2-yl)pyrimidin-4(3H)-one], the EC50 on human PPARγ2 was 1720 nM. Consider `CCCCc1nc(C)n(-c2ncc(OCCCC(N)=O)cn2)c(=O)c1Cc1cc(CCC)c(OC(C(=O)O)c2ccccc2)c(CCC)c1` (stereo not drawn) [Example 23], for which, in assay [1], half-maximal inhibition (IC50) was put at 67 nM. As for `CCCCc1nc(C)n(-c2ncc(OCCSC)cn2)c(=O)c1Cc1cc(CCC)c(OC(C(=O)O)c2ccccc2)c(CCC)c1` (stereo not drawn) [Example 24, 2-[4-[[4-butyl-2-methyl-1-[5-{2-(methylthio)ethoxy}pyrimidin-2-yl]-6-oxo-1,6-dihydropyrimidin-5-yl]methyl]-2,6-dipropylphenoxy]-2-phenylacetic acid], at human PPARγ2, the EC50 was determined as 1340 nM and the Emax was determined as 39.8%. The matching figures for `CCCCc1nc(C)n(-c2ccc(OCC)cc2)c(=O)c1Cc1cc(CCC)c(OC(C(=O)O)c2ccccc2)c(CCC)c1` (stereo not drawn) [Example 13]: 480 nM and 42.9%.

In general, IC50 refers to the midpoint of a concentration-inhibition curve. One may read the EC50 as the concentration that produces a half-maximal response.
